Measured values from paper PMC3736071, “Probing horseradish peroxidase catalyzed degradation of azo dye from tannery wastewater” (SpringerPlus, 2013).

System: T1, horseradish peroxidase (HRP)
T1 construct: gene PRXC1A
Experiment: dye decolorization at […] nm, Lineweaver-Burk plot
Type: biochemical, Armoracia rusticana
Conditions: free HRP; H2O2 co-substrate (14 μL of 30% w/v per 3 mL, fixed); pH 6.6; 30°C; commercial dye; read-out: apparent Km

Km: 68 µM
Compound: O=S(=O)(O)c1cccc(N=Nc2ccc(N=Nc3ccc(Nc4ccccc4)c4c(S(=O)(=O)O)cccc34)c3ccccc23)c1 [C.I. Acid Blue 113]
